Assay results as given in publication PMC10265664, “Peptide Antibiotic–Polyphosphate Nanoparticles: A Promising Strategy to Overcome the Enzymatic and Mucus Barrier of the Intestine” (Biomacromolecules, 2023).
Read-outs that look alike come from different tables or passages of the source.

Columns and labels:
[1] = system: lipase from porcine pancreas; assay: Degradation study with lipase; format: in vitro ADME; settings: porcine pancreatic lipase, 37 °C, sampling 0-24 h, absorbance 210 nm, mean n = 3
Procedure: Enzymatic degradation of free PMB and PMB being incorporated into NPs was evaluated with lipase. Lipase solution was prepared by dissolving 0.5 g of the enzyme in 10 mL of digestion medium (2 mM Tris buffer with 5 mM CaCl2 and 150 mM NaCl). After homogenization for 10 min, the enzyme mixture was centrifuged at 12,000 rpm (Sigma 3-18KS, Austria) for 15 min at 4 °C.[17] Thereafter, 2 mL of the supernatant liquid was added to 4 mL of 0.01% (m/v) PMB–PP NPs suspension and incubated at 37 °C under constant shaking using a ThermoMixer (Eppendorf, Hamburg, Germany). Aliquots of 100 μL were withdrawn at predetermined time points (0, 1, 2, 4, 6, 12, and 24 h) and transferred to a 96-well microplate (μClear 96-well plates, Greiner bio-one, Austria). PMB–PP NPs and PMB suspension without lipase served as negative control and were incubated under the same conditions. […] The same settings were applied for PMB. The PMB concentration was determined using a calibration curve with increasing concentrations of PMB ranging from 0.78 to 50 μM.
Degradation was evaluated by quantifying the % remaining amount of PMB by the following equation: [drawing 3]

[2] = cited from earlier work
Excerpt: The ionic strength of the polycation plays also an important role in the formation of such particles. […] PMB–PP NPs could therefore be formed.

[3] = system: 50 multidrug-resistant Gram-negative bacterial strains; parameters: method as in PMID 33045992; settings: cited from earlier work

Substance: Polymyxin B sulfate [PMB]
- PMB degraded after lipase exposure [1]: 39.32%
- isoelectric point [2]: 10.74
- MICs (minimum inhibitory concentrations) ([3]; 44 of 50 multidrug-resistant Gram-negative bacterial strains): ≥ 4 µg/mL
- MICs (minimum inhibitory concentrations) ([3]; the other 6 of 50 multidrug-resistant Gram-negative bacterial strains): 2 µg/mL
